Data set [1] is described as follows: Hydrolytic stability in buffer solutions of various pH (HPLC). The class given is physicochemical. As to conditions: phosphate-buffered solution, read-out: half life value (T1/2), hydrolytic stability (converted). The source says:
Hydrochloric acid of 0.1 N was used for pH 1 solution. Samples were repeatedly, manually injected onto HPLC at specific time intervals at room temperature. The peak areas of the compounds were monitored by UV detection. […] The “half life value, T1/2,” means the time required for one-half of the total amount of a compound in a solution to be degraded by hydrolysis processes when the rate of removal is nearly exponential. […] A first order calculation was used to determine the rate constant for each buffer on the loss of peak area over time.

A short description of data set [2]: Aqueous solubility (HPLC). The class given is physicochemical. As to conditions: thermodynamic from solid, water. Here is the method:
The solubility experiment procedure was modified due to chemical stabilities. Briefly, an excess of a test compound was added 0.5 mL of water in an one mL of vial, pre-equilibrated, and then sonicated at 23° C. for 3 min. Aliquots were filtered and analyzed for drug contents. The concentration of each compound was determined by HPCL, at λ=254 nm, 23° C. The aliquot containing the analyte was diluted 100× due to the detection limit of the instrument.

Data set [3] relates to HSV-1. Nature of the data set: Attenuation of HSV-1 induced cytopathic effects on Vero cells. As to conditions: HSV-1 at 10^-4 titration, treated 4 days, different concentrations. It is filed as cell-based. Here is the method:
Human epithelial (HEp-2) cells were cultured in MEM supplemented with 10% fetal calf serum and 10% heat activated newborn calf serum. Vero cells were cultured in RPMI-1640 and 10% heat activated newborn calf serum. Penicillin (1000 I.U./ml), streptomycin (100 μg/ml), and bicarbonate buffer were present in the medium, and cells were maintained at 37° C., 5% CO2, humidified atmosphere, and subcultured 2˜3 times a week.
The antiviral activity of Compound 3 was determined by evaluating the attenuation in HSV-1 induced cytopathic effects on Vero cells. Vero cells (10,000 cells/well) in a 96-well culture plate were infected with an increasingly diluted HSV-1 virus solution (10^−3 to 10^−5) in L15 medium. After 2 h incubation the unadsorbed virus was removed, the cell monolayer was washed with PBS. […] Every 24 hr the cytopathic effects were observed and photographed under microscope (FIG. 2). Anti-HSV-1 activity was determined by inhibition of cytopathic effect as compared with control. The cytopathic effects effects after HSV-1 propagation HSV-1 between Vero cells were quantified in terms of 50% tissue culture infective dose (TCID50, which was used to determine the infectious titer of HSV-1 which can cause cytopathic effects in culture).

The test system of a further data set is Vero cells. Nature of the data set: Toxicity to Vero cells. The class given is cell-based.
Data set [4] has as its system HSV-1. Nature of the data set: Herpetic keratitis in mice with cornea inoculated by HSV-1 (eye-drops). The note with it: eye-drops 0.34% or 0.2% w/v in saline, 3 times a day; for corneal cloudiness, vehicle-treated group versus treated group: day-14; for severity of ocular disease symptoms (corneal clouding, stromal keratitis, blepharitis): day-21. The class given is in vivo, Balb/c mice. Here is the method: The effect of Compound 3 on herpetic keratitis was investigated in mice with cornea inoculated by HSV-1. Balb/c mice (eight weeks old, 25 g body weight) were anesthetized with isoflurane, and epithelium of both right and left corneas lightly scratched in a cross-hatch pattern (four horizontal and four vertical scratches) with a 26-gauge needle under a microscope. The mouse cornea was inoculated with 5 μL of HSV-1 suspension containing 2.5×10^6 plaque-forming units (PFU), or saline for control. After the inoculations, mice were assigned randomly to treatment groups (4˜5 mice per group), with both eyes treated with Compound 3 or ganciclovir or vehicle (saline) after lightly anaesthetized. Eight hours after HSV-1 inoculation, 1 drop (10 μl) of 0.34% or 0.2% w/v solution of compound 3 or ganciclovir in saline with anti-fungi agent (0.05 w/v amphotericin-B) was applied to each eye daily, 3 times a day. The keratitis was graded, recorded and scored daily for 21 days, and the eyes were examined with a microscopic camera at frequent intervals.

[5] abbreviates: 23° C., sonicated 3 min, read-out: aqueous solubility.

Experimental findings from patent US8969361B2, “Cyclopropanecarboxylate esters of purine analogues” (Annji Pharmaceutical Co., Ltd., priority 2012, dated 2015) are described below.

In brackets after ≈: the same amount, converted by molar mass. Read-outs that look alike come from different tables or passages of the source. Bounds are passed on as bounds.

The solubility is how much of the substance goes into solution per volume. Take `Nc1nc2c(ncn2COC(CO)COC(=O)C2(N)CC2c2ccccn2)c(=O)[nH]1` (stereo not drawn) [Compound 11, 1-Amino-2-pyridin-2-yl-cyclopropanecarboxylic acid 2-(2-amino-6-oxo-1,6-dihydro-purin-9-ylmethoxy)-3-hydroxypropyl ester]: the half-life at 1 mg/mL in data set [1] (pH 7.4, 40° C.) is 43 h. For the same molecule, the solubility at 3 min in data set [2] (setting [5]) was 253 mg/mL (≈ 609 mM).

Broadly, the melting point is the temperature of the solid-liquid transition. On to `CC1(C)CC1(N)C(=O)OCC(CO)OCn1cnc2c(=O)[nH]c(N)nc21` (stereo not drawn) [Compound 7, 1-Amino-2,2-dimethyl-cyclopropanecarboxylic acid 2-(2-amino-6-oxo-1,6-dihydro-purin-9-ylmethoxy)-3-hydroxypropyl ester], for which the melting point was more than 300 °C. The half-life at 1 mg/mL in data set [1] (pH 7.4, 40° C.) is 68 h. Moreover, the solubility at 3 min in data set [2] (setting [5]) was found to be 213 mg/mL (≈ 581 mM).

For `Nc1nc2c(ncn2COC(CO)COC(=O)C2(N)CC2c2ccccc2)c(=O)[nH]1` (stereo not drawn) [Compound 6, 1-Amino-2-phenyl-cyclopropanecarboxylic acid 2-(2-amino-6-oxo-1,6-dihydro-purin-9-ylmethoxy)-3-hydroxypropyl ester], in data set [1] (pH 7.4, 40° C.), the half-life at 1 mg/mL is 75 h. Further, the solubility at 3 min in data set [2] (setting [5]) came out at 170 mg/mL (≈ 410 mM).

As to `CC1CC1(N)C(=O)OCC(CO)OCn1cnc2c(=O)[nH]c(N)nc21` (stereo not drawn) [Compound 8, 1-Amino-2-methyl-cyclopropanecarboxylic acid 2-(2-amino-6-oxo-1,6-dihydro-purin-9-ylmethoxy)-3-hydroxypropyl ester], the half-life at 1 mg/mL in data set [1] (pH 7.4, 40° C.) is 58 h.

In turn, `Nc1nc2c(ncn2COC(CO)COC(=O)C2(N)CC2)c(=O)[nH]1` (stereo not drawn) [Compound 3, 1-amino-cyclopropanecarboxylic acid 2-(2-amino-6-oxo-1,6-dihydro-purin-9-ylmethoxy)-3-hydroxypropyl ester] gave a melting point of more than 300 °C. In addition, the half-life at 1 mg/mL in data set [1] (pH 7.4, 40° C.) is 53 h. The half-life at 1 mg/mL in data set [1] (acidic solution (pH 4), 40° C.) was more than 300 h. In addition, the solubility at 3 min in data set [2] (setting [5]) was determined as 180 mg/mL (≈ 532 mM). Besides, the “cytopathogenic effects of HSV-1 on Vero cells (morphological evaluation)” value in the data set with HSV-1 [3] is “reduced the cytopathogenic effects of HSV-1 on Vero cells in a concentration-dependent manner”. For the same molecule, in the data set with Vero cells, the “toxicity to Vero cells” value is reported as “nontoxic to Vero cells”. For the same molecule, in the data set with HSV-1 [4], the “corneal cloudiness, vehicle-treated group versus treated group” value is reported as “much more significant” and the “severity of ocular disease symptoms (corneal clouding, stromal keratitis, blepharitis)” value was “eliminated the extra-ocular keratitis morphologies almost entirely”.

`CNC1(C(=O)OCC(CO)OCn2cnc3c(=O)[nH]c(N)nc32)CC1` (stereo not drawn) [Compound 4, 1-Methylamino-cyclopropanecarboxylic acid 2-(2-amino-6-oxo-6-dihydro-purin-9-ylmethoxy)-3-hydroxypropyl ester]: in data set [2] (setting [5]), the solubility at 3 min is 227 mg/mL (≈ 644 mM).

For `Nc1nc2c(ncn2COC(CO)COC(=O)C2(N)CC2C(F)(F)F)c(=O)[nH]1` (stereo not drawn) [Compound 9, 1-Amino-2-trifluoromethyl-cyclopropanecarboxylic acid 2-(2-amino-6-oxo-1,6-dihydro-purin-9-ylmethoxy)-3-hydroxypropyl ester], in data set [1] (pH 7.4, 40° C.), the half-life at 1 mg/mL was 33 h. Moreover, the solubility at 3 min in data set [2] (setting [5]) is 261 mg/mL (≈ 642 mM).

In data set [2] (23 °C), `Nc1nc(O)c2ncn(COC(CO)CO)c2n1` [ganciclovir, reference compound] showed a solubility at 3 min of 2.6 mg/mL (≈ 10.2 mM). Moreover, the “toxicity to Vero cells” value with Vero cells (concentrations used in the antiviral test) was “nontoxic to Vero cells”. In the data set on HSV-1 [4], the “corneal cloudiness, vehicle-treated group versus treated group” value is on record as “much more significant”; the “severity of ocular disease symptoms (corneal clouding, stromal keratitis, blepharitis)” value is “reduced the severities in stromal keratitia and corneal clouding dramatically, but blephartitis still existed”.

As to `Nc1nc2c(ncn2COC(CO)COC(=O)C2(N)CC2c2ccco2)c(=O)[nH]1` (stereo not drawn) [Compound 10, 1-Amino-2-furan-2-yl-cyclopropanecarboxylic acid 2-(2-amino-6-oxo-1,6-dihydro-purin-9-ylmethoxy)-3-hydroxypropyl ester], the half-life at 1 mg/mL in data set [1] (pH 7.4, 40° C.) is 29 h. Further, the solubility at 3 min in data set [2] (setting [5]) stood at 260 mg/mL (≈ 643 mM).

With `Nc1nc2c(ncn2COC(CO)COC(=O)C2(N)CC2c2ccc(Br)cc2)c(=O)[nH]1` (stereo not drawn) [Compound 5, 1-Amino-2-(4-bromo-phenyl)-cyclopropanecarboxylic acid 2-(2-amino-6-oxo-1,6-dihydro-purin-9-ylmethoxy)-3-hydroxypropyl ester], the half-life at 1 mg/mL in data set [1] (pH 7.4, 40° C.) is 85 h. In addition, the solubility at 3 min in data set [2] (setting [5]) is 155 mg/mL (≈ 314 mM).
